Test results reported in patent US20260285850A1, “SUBSTITUTED OXAZOLIDINONES AND IMIDAZOLINONES AS HERBICIDES” (FMC CORPORATION, priority 2023, published 2026).

Tests used:
Format in all cases: in vivo
[1] = tested on: wheat (Triticum aestivum); assay: Test A preemergence soil spray, visual injury rating 0-100; conditions: 10 days
Description: (§1) Seeds of plant species selected from barnyardgrass (Echinochloa crus-galli), blackgrass (Alopecurus myosuroides), corn (Zea mays), foxtail, giant (giant foxtail, Setaria faberi), green foxtail (Setaria viridis), goosegrass (Eleusine indica), kochia (Bassia scoparia), oat, wild (wild oat, Avena fatua), palmer (palmer amaranth, palmer pigweed, Amaranthus palmeri), ragweed (common ragweed, Ambrosia artemisiifolia), ryegrass, Italian (italian ryegrass, Lolium multiflorum), soybean (Glycine max) and wheat (Triticum aestivum) were planted into a blend of loam soil and sand and treated preemergence with a directed soil spray using test chemicals formulated in a non-phytotoxic solvent mixture which included a surfactant.
(§2) At the same time, plants selected from these crops and weed species and also galium (catchweed bedstraw, Galium aparine) and horseweed (Erigeron canadensis) were planted in pots containing the same blend of loam soil and sand and treated with postemergence applications of test chemicals formulated in the same manner. Plants ranged in height from 2 to 10 cm and were in the one- to two-leaf stage for the postemergence treatment. Treated plants and untreated controls were maintained in a greenhouse for 10 days, after which time all treated plants were compared to untreated controls and visually evaluated for injury. Plant response ratings, summarized in Table A, are based on a 0 to 100 scale where 0 is no effect and 100 is complete control. A dash (-) response means no test result.

[2] = tested on: ragweed (common ragweed, Ambrosia artemisiifolia); assay: as above; conditions: 10 days
Description: as §1, §2

[3] = tested on: blackgrass (Alopecurus myosuroides); assay: as above; conditions: 10 days
Description: as §1, §2

kochia (Bassia scoparia) [4] = assay: as above; conditions: 10 days
Description: as §1, §2

[5] = tested on: barnyardgrass (Echinochloa crus-galli); assay: as above; conditions: 10 days
Description: as §1, §2

[6] = tested on: ryegrass, Italian (italian ryegrass, Lolium multiflorum); assay: as above; conditions: 10 days
Description: as §1, §2

[7] = tested on: palmer (palmer amaranth, palmer pigweed, Amaranthus palmeri); assay: as above; conditions: 10 days
Description: as §1, §2

corn (Zea mays) [8] = assay: as above; conditions: 10 days
Description: as §1, §2

soybean (Glycine max) [9] = assay: as above; conditions: 10 days
Description: as §1, §2

[10] = tested on: oat, wild (wild oat, Avena fatua); assay: as above; conditions: 10 days
Description: as §1, §2

[11] = tested on: wheat (Triticum aestivum); assay: Test A postemergence application, visual injury rating 0-100; conditions: Postemergence
Description: as §1, §2

[12] = tested on: ragweed (common ragweed, Ambrosia artemisiifolia); assay: as above; conditions: Postemergence
Description: as §1, §2

[13] = tested on: blackgrass (Alopecurus myosuroides); assay: as above; conditions: Postemergence
Description: as §1, §2

kochia (Bassia scoparia) [14] = assay: as above; conditions: Postemergence
Description: as §1, §2

[15] = tested on: barnyardgrass (Echinochloa crus-galli); assay: as above; conditions: Postemergence
Description: as §1, §2

[16] = tested on: ryegrass, Italian (italian ryegrass, Lolium multiflorum); assay: as above; conditions: Postemergence
Description: as §1, §2

[17] = tested on: galium (catchweed bedstraw, Galium aparine); assay: as above; conditions: Postemergence
Description: as §1, §2

[18] = tested on: palmer (palmer amaranth, palmer pigweed, Amaranthus palmeri); assay: as above; conditions: Postemergence
Description: as §1, §2

[19] = tested on: horseweed (Erigeron canadensis); assay: as above; conditions: Postemergence
Description: as §1, §2

corn (Zea mays) [20] = assay: as above; conditions: Postemergence
Description: as §1, §2

soybean (Glycine max) [21] = assay: as above; conditions: Postemergence
Description: as §1, §2

[22] = tested on: oat, wild (wild oat, Avena fatua); assay: as above; conditions: Postemergence
Description: as §1, §2

[23] = 125 g ai/ha, 0 = no effect, 100 = complete control
[24] = 31 g ai/ha, greenhouse 10 days, 0 no effect, 100 complete control
[25] = 125 g ai/ha, 10 days, 0 is no effect, 100 is complete control

Compound: CCS(=O)(=O)NC(=O)C1C=CC(NC(=O)C2(C)CN(c3cc(F)cc(F)c3)C(=O)O2)C1 (centres unmarked) [Compound 81]
- Wheat plant response rating ([1]; 31 g ai/ha, 0 to 100 scale): 40
- Wheat plant response rating (0 to 100 scale) [1, 23]: 90
- Ragweed plant response rating ([2]; 31 g ai/ha, 0 to 100 scale): 20
- Ragweed plant response rating (0 to 100 scale) [2, 23]: 10
- Blackgrass plant response rating ([3]; 31 g ai/ha, 0 to 100 scale): 30
- Blackgrass plant response rating (0 to 100 scale) [3, 23]: 70
- Kochia plant response rating (kochia (Bassia scoparia) [4]; 31 g ai/ha, 0 to 100 scale): 70
- Kochia plant response rating (0 to 100 scale) (kochia (Bassia scoparia) [4]; [23]): 90
- Barnyardgrass plant response rating ([5]; 31 g ai/ha, 0 to 100 scale): 90
- Barnyardgrass plant response rating (0 to 100 scale) [5, 23]: 90
- Ryegrass, Italian plant response rating ([6]; 31 g ai/ha, 0 to 100 scale): 60
- Ryegrass, Italian plant response rating (0 to 100 scale) [6, 23]: 80
- Amaranth, Palmer (Pigweed, Palmer) plant response rating ([7]; 31 g ai/ha, 0 to 100 scale): 50
- Amaranth, Palmer plant response rating (0 to 100 scale) [7, 23]: 90
- Corn plant response rating (corn (Zea mays) [8]; 31 g ai/ha, 0 to 100 scale): 0
- Corn plant response rating (0 to 100 scale) (corn (Zea mays) [8]; [23]): 80
- Soybean plant response rating (soybean (Glycine max) [9]; 31 g ai/ha, 0 to 100 scale): 10
- Soybean plant response rating (0 to 100 scale) (soybean (Glycine max) [9]; [23]): 70
- Oat, Wild plant response rating ([10]; 31 g ai/ha, 0 to 100 scale): 40
- Oat, Wild plant response rating (0 to 100 scale) [10, 23]: 70
- Wheat plant response rating (0 to 100 scale) [11, 24]: 90
- Wheat plant response rating (0 to 100 scale) [11, 25]: 90
- Ragweed plant response rating (0 to 100 scale) [12, 24]: 20
- Ragweed plant response rating (0 to 100 scale) [12, 25]: 50
- Blackgrass plant response rating (0 to 100 scale) [13, 24]: 0
- Blackgrass plant response rating (0 to 100 scale) [13, 25]: 50
- Kochia plant response rating (0 to 100 scale) (kochia (Bassia scoparia) [14]; [24]): 80
- Kochia plant response rating (0 to 100 scale) (kochia (Bassia scoparia) [14]; [25]): 90
- Barnyardgrass plant response rating (0 to 100 scale) [15, 24]: 90
- Barnyardgrass plant response rating (0 to 100 scale) [15, 25]: 90
- Ryegrass, Italian plant response rating (0 to 100 scale) [16, 24]: 50
- Ryegrass, Italian plant response rating (0 to 100 scale) [16, 25]: 70
- Galium plant response rating (0 to 100 scale) [17, 24]: 80
- Galium plant response rating (0 to 100 scale) [17, 25]: 80
- Amaranth, Palmer / Pigweed, Palmer plant response rating (0 to 100 scale) [18, 24]: 70
- Amaranth, Palmer / Pigweed, Palmer plant response rating (0 to 100 scale) [18, 25]: 70
- Horseweed plant response rating (0 to 100 scale) [19, 24]: 30
- Horseweed plant response rating (0 to 100 scale) [19, 25]: 70
- Corn plant response rating (0 to 100 scale) (corn (Zea mays) [20]; [24]): 60
- Corn plant response rating (0 to 100 scale) (corn (Zea mays) [20]; [25]): 100
- Soybean plant response rating (0 to 100 scale) (soybean (Glycine max) [21]; [24]): 30
- Soybean plant response rating (0 to 100 scale) (soybean (Glycine max) [21]; [25]): 50
- Oat, Wild plant response rating (0 to 100 scale) [22, 24]: 80
- Oat, Wild plant response rating (0 to 100 scale) [22, 25]: 90
